Experimental data reported in patent publication US20080241265A1, “Pharmaceutical Combinations Containing Lamivudine, Stavudine and Nevirapine” (priority 2005, published 2008).
Entries after “also recorded” stand apart in the source; their conditions may differ.

Assay: Compatibility study of homogeneous mixtures of the active ingredients (appearance and impurities after storage)
Format: physicochemical
Conditions: conclusion from the four-week mixture study
Text: Study was designed so as to evaluate the physico-chemical parameters of these three drugs.

SMILES | Compatibility with the other active ingredient
Cc1cn([C@H]2C=C[C@@H](CO)O2)c(=O)[nH]c1=O [stavudine, (3′-deoxythymidin-2′-ene(3′-deoxy-2′,3′-didehydrothymidine)] | incompatible with nevirapine
Nc1ccn([C@@H]2CS[C@H](CO)O2)c(=O)n1 [Lamivudine, (2R-cis)-4-Amino-1-[2-(hydroxymethyl) 1,3-oxathiolan-5-yl]-2(1H)-pyrimidinone] | compatible with Nevirapine; also recorded: not with Stavudine
